Measured values taken from US7977366B2, “Treating an inflammatory disorder or inhibiting respiratory burst in adherent neutrophils with chemical inhibitors of neutrophil activation” (Cornell Research Foundation, Inc., priority 2003, dated 2011).

Test system: Pyk2
Test: TNF-induced phosphorylation of Pyk2 Y402 in neutrophils (western blot)
Type: cell-based, human
Experimental: Tissue culture plates (Primaria, Falcon) were coated with 3 ml of FBS in 5% CO2 at 37° C. for at least 1 h and washed twice with 0.9% saline. Isolated human neutrophils (1.5×10^6) were added to each plate containing 4 ml of reaction mixture, incubated with each compound at 37° C. for 30 min, and stimulated with either buffer control or TNF (100 ng/ml). When cells were fully spread (20-40 min), they were treated with 5 mM diisopropylfluorophosphate to inhibit serine proteases and lysed with either 125 μl of SDS lysis buffer (10 mM Tris-HCl, pH 7.6, 150 mM NaCl, 1% SDS, 1 mM PMSF, 1 mM Na pyrophosphate, 1 mM NaF, 1 mM vanadate, 5 μg/ml each of aprotinin, leupeptin, chymostatin, pepstatin A) for western blot, or with 200 μl of non-denaturing modified RIPA buffer (10 mM Tris-HCl, pH 7.6, 150 mM NaCl, 1% Triton-X100, 1 mM PMSF, 1 mM Na pyrophosphate, 1 mM NaF, 1 mM vanadate, 5 μg/ml each of aprotinin, leupeptin, chymostatin, pepstatin A) for immunoprecipitation. The cell lysate was passed through a 26-gauge needle six times to shear DNA and centrifuged at 20,000×g for 15 min to remove cell debris and DNA. The protein concentration was determined using a Bio-Rad (Indianapolis, Ind.) kit. […] After further washing with TBST, bound antibody was detected by enhanced chemiluminescence (Pierce ECL, Amersham Pharmacia, Piscataway, N.J.). […]

With `O=C1CC(c2ccccc2)=NN1c1cccc(Cl)c1` [Comp II, 2-(3-Chloro-phenyl)-5-phenyl-2,4-dihydro-pyrazol-3-one] the “TNF-induced phosphorylation of Pyk2 Y402 (activation of Pyk2)” value was “did not block”.
